Reference: patent US6599893B2, “Cephalosporin antibiotics and prodrugs thereof” (Essential Therapeutics, Inc., priority 2000, dated 2003)
Values after ≈ are worked out from the molar mass of the structure shown. Read-outs that look alike come from different tables or passages of the source.

Key:
[1] = system: Staphylococcus aureus Smith (MSSA); assay: Broth microdilution MIC, S. aureus Smith; format: cell-based; conditions: for MIC: read-out: MIC S. a. Smith
Procedure: (§1) Compounds were evaluated for antimicrobial activity against a panel of bacterial strains using a broth microdilution assay performed as recommended by the NCCLS (NCCLS (National Committee for Clinical Laboratory Standards). 1993. Methods for dilution antimicrobial susceptibility tests for bacteria that grow aerobically. NCCLS Document M7-A3, 1993. In: NCCLS Antimicrobial Susceptibility Testing, 3rd Ed.)
(§2) The minimum inhibitory concentration (MIC) is defined as the lowest concentration of a compound that prevents the growth of the bacteria.

[2] = system: Staphylococcus aureus ATCC 29213 (MSSA); assay: Broth microdilution MIC, S. aureus ATCC 29213; format: cell-based; conditions: for MIC: read-out: MIC S. a. 29213
Procedure: as §1, §2

[3] = system: Staphylococcus aureus COL (MRSA, non-β-lactamase producing); assay: Broth microdilution MIC, S. aureus COL; format: cell-based; conditions: for MIC: read-out: MIC S. a. COL
Procedure: as §1, §2

[4] = system: Staphylococcus aureus 76 (MRSA, β-lactamase producing); assay: Broth microdilution MIC, S. aureus 76; format: cell-based; conditions: for MIC: read-out: MIC S. a. 76
Procedure: as §1, §2

[5] = system: Enterococcus faecalis ATCC 29212; assay: Broth microdilution MIC, E. faecalis ATCC 29212; format: cell-based
Procedure: as §1, §2

[6] = system: Enterococcus faecium ATCC 35667; assay: Broth microdilution MIC, E. faecium ATCC 35667; format: cell-based
Procedure: as §1, §2

[7] = system: S. aureus strain Smith; assay: Experimental infection of mice, ED50; format: in vivo, Swiss-Webster mice; conditions: for ED50: Staphylococcus aureus, read-out: ED50, mg/kg (95% C.I.)
Procedure: Staphylococcus aureus strain Smith (ATCC 13709, penicillin-susceptible) or strain 76 (methicillin-resistant) was cultured overnight at 37° C. in brain-heart infusion broth (BHIB). The following morning, a portion of the culture was transferred to fresh BHIB and incubated for an additional 4-5 hours at 37° C. The cells were harvested by centrifugation, washed twice with PBS, and adjusted to the desired inoculum amount. The cell suspension was mixed with an equal volume of sterile 14% hog-gastric mucin (Comber K. R.; Osborne C. D.; Sutherland R.: Comparative effects of amoxicillin and ampicillin in the treatment of experimental mouse infections. Antimicrobial Agents and Chemotherapy 7(2):179-185, 1975). The inoculum was kept in an ice bath until used (preferably in less than one hour).
Male Swiss-Webster mice were challenged intraperitoneally with 0.5 mL of a bacterial suspension of S. aureus strain Smith (LD50). Test compounds were administered subcutaneously in 0.1 mL volumes immediately after inoculation and 2 hours later. […] The total dose associated with 50% survival (ED50) was determined using the probit method (Pasiello, A. P., J. M. Essigmann, and G. N. Wogan.: Rapid and accurate determination of median lethal dose (LD50) and its error with a small computer. J Toxicol. Environ. Health. 3:797-809, 1977).

[8] = Human serum binding by ultrafiltration; format: in vitro ADME
Procedure: Binding of several representative compounds of this invention in pooled human serum was determined using ultrafiltration. Compounds were incubated in serum for 10 minutes at 37° C. in a shaking water bath. Serum ultrafiltrate was accomplished by centrifugation (Amicon Centrifree) for 20 minutes at 25° C. Compound content in the ultrafiltrate was quantified by HPLC. An ultrafilrate obtained by following the same procedure with no added compound was used as a standard.

[9] = Human serum binding estimated from serum effect on MIC (HSB*); format: in vitro ADME; conditions: MIC against S. aureus ATCC 29213 in growth medium vs 1:1 growth medium and human serum
Source text: An estimate of human serum binding (HSB*) was obtained for some compounds using the MIC values against S. aureus ATCC 29213 determined in growth medium (GM) and in a 1:1 mixture of growth medium and human serum (GM+HS):
HSB*=(MICGM+HS−MICGM)/MICGM 100%

[10] = Staphylococcus aureus Smith (MSSA)
[11] = Staphylococcus aureus ATCC 29213 (MSSA)
[12] = Staphylococcus aureus COL (MRSA, non-β-lactamase producing)
[13] = Staphylococcus aureus 76 (MRSA, β-lactamase producing)
[14] = Enterococcus faecalis ATCC 29212
[15] = Enterococcus faecium ATCC 35667
[16] = 50% efficacious dose, S. aureus Smith, mice challenged intraperitoneally, compound subcutaneously at 0 and 2 h, total dose, 72 h survival
[17] = ATCC29212, Enterococcus faecalis ATCC 29212, read-out: MIC E. f. 29212
[18] = ATCC35667, Enterococcus faecium ATCC 35667, read-out: MIC E. f. 35667
[19] = pooled human serum, ultrafiltration, 10 minutes at 37° C.

| SMILES | MIC S. a. Smith [1, 10] | MIC S. a. 29213 [2, 11] | MIC S. a. COL [3, 12] | MIC S. a. 76 [4, 13] | MIC E. f. 29212 [5, 14] | MIC E. f. 35667 [6, 15] | ED50, mg/kg (95% C.I.) [7, 16] | MIC [1, 10] | MIC [2, 11] | MIC [3, 12] | MIC [4, 13] | MIC [5, 17] | MIC [6, 18] | HSB*, human serum binding calculated using serum effect on MIC [9] | also measured |
| --- | --- | --- | --- | --- | --- | --- | --- | --- | --- | --- | --- | --- | --- | --- | --- |
| Nc1nc(/C(=N/O)C(=O)N[C@@H]2C(=O)N3C(C(=O)O)=C(Sc4ccncc4CSc4ccncc4)CS[C@H]23)c(Cl)s1 [Compound 25] | 0.25 µg/mL (≈ 0.393 µM) | 0.25 µg/mL (≈ 0.393 µM) | 1 µg/mL (≈ 1.57 µM) | 2 µg/mL (≈ 3.14 µM) | 0.125 µg/mL (≈ 0.196 µM) | 0.25 µg/mL (≈ 0.393 µM) | >5 mg/kg |  |  |  |  |  |  |  | HSB, human serum binding [8]: >99% |
| Nc1nnc(SC2=C(C(=O)O)N3C(=O)[C@@H](NC(=O)C(=NOCCF)c4nc(N)sc4Cl)C3SC2)s1 (stereo partly drawn) [Compound 42, (7R)-7-[2-(2-Amino-5-chlorothiazol-4-yl)-2-(2-fluoroethoxyimino)-acetylamino]-3-(5-amino-[1,3,4]thiadiazol-2-ylsulfanyl)-8-oxo-5-thia-1-aza-bicyclo[4.2.0]oct-2-ene-2-carboxylic acid] |  |  |  |  |  |  |  | 0.25 µg/mL (≈ 0.43 µM) | 0.5 µg/mL (≈ 0.86 µM) | 2 µg/mL (≈ 3.44 µM) | 2 µg/mL (≈ 3.44 µM) | 1 µg/mL (≈ 1.72 µM) | 4 µg/mL (≈ 6.88 µM) | 75% | HSB, human serum binding [8, 19]: 65% |
| Nc1nnc(SCc2cnccc2SC2=C(C(=O)O)N3C(=O)[C@@H](NC(=O)/C(=N\O)c4nc(N)sc4Cl)[C@H]3SC2)s1 [Compound 26] | 0.06 µg/mL (≈ 0.0912 µM) | 0.25 µg/mL (≈ 0.38 µM) | 1 µg/mL (≈ 1.52 µM) | 2 µg/mL (≈ 3.04 µM) | 0.25 µg/mL (≈ 0.38 µM) | 0.5 µg/mL (≈ 0.76 µM) | 0.38 (01-0.7) mg/kg |  |  |  |  |  |  |  | HSB, human serum binding [8, 19]: >99% |
| Nc1nc(/C(=N/O)C(=O)N[C@@H]2C(=O)N3C(C(=O)O)=C(Sc4ccncc4CSCCNC=O)CS[C@H]23)c(Cl)s1 [Compound 27] | 0.25 µg/mL (≈ 0.397 µM) | 0.25 µg/mL (≈ 0.397 µM) | 2 µg/mL (≈ 3.17 µM) | 4 µg/mL (≈ 6.35 µM) | 0.25 µg/mL (≈ 0.397 µM) | 1 µg/mL (≈ 1.59 µM) | 2.27 (1.0-5.5) mg/kg |  |  |  |  |  |  |  | HSB, human serum binding [8]: 94% |
| CN[C@H](CC(C)C)C(=O)N[C@H]1C(=O)N[C@@H](CC(N)=O)C(=O)N[C@H]2C(=O)N[C@H]3C(=O)N[C@H](C(=O)N[C@H](C(=O)O)c4cc(O)cc(O)c4-c4cc3ccc4O)[C@H](O)c3ccc(c(Cl)c3)Oc3cc2cc(c3O[C@@H]2O[C@H](CO)[C@@H](O)[C@H](O)[C@H]2O[C@H]2C[C@](C)(N)[C@H](O)[C@H](C)O2)Oc2ccc(cc2Cl)[C@H]1O [Vancomycin, reference compound] |  |  |  |  |  |  |  |  |  |  |  |  |  |  | MIC ([1]; Staphylococcus aureus, MSSA): 0.5 µg/mL (≈ 0.345 µM); MIC ([2]; Staphylococcus aureus): 0.5 µg/mL (≈ 0.345 µM); MIC ([3]; Staphylococcus aureus, MRSA): 1 µg/mL (≈ 0.69 µM); MIC ([4]; Staphylococcus aureus, MRSA): 0.5 µg/mL (≈ 0.345 µM); MIC ([5]; Enterococcus faecalis, ATCC29212, read-out: MIC E. f. 29212): 1 µg/mL (≈ 0.69 µM); MIC ([6]; Enterococcus faecium, ATCC35667, read-out: MIC E. f. 35667): 0.25 µg/mL (≈ 0.173 µM); ED50 [7]: 2.1 mg/kg |
| Nc1nc(/C(=N/O)C(=O)N[C@@H]2C(=O)N3C(C(=O)O)=C(Sc4cccc5nncn45)CS[C@H]23)c(Cl)s1 [Compound 35] | 0.25 µg/mL (≈ 0.452 µM) | 0.5 µg/mL (≈ 0.904 µM) | 4 µg/mL (≈ 7.23 µM) | 4 µg/mL (≈ 7.23 µM) | 0.25 µg/mL (≈ 0.452 µM) | 4 µg/mL (≈ 7.23 µM) |  |  |  |  |  |  |  | — (88%) |  |
| Cc1nnsc1SC1=C(C(=O)O)N2C(=O)[C@@H](NC(=O)C(=NO)c3nc(N)sc3Cl)C2SC1 (stereo partly drawn) [Compound 34, (7R)-7-[2-(2-Amino-5-chlorothiazol-4-yl)-2-hydroxyiminoacetylamino]-3-(4-methyl-[1,2,3]thiadiazol-5-ylsulfanyl)-8-oxo-5-thia-1-aza-bicyclo[4.2.0]oct-2-ene-2-carboxylic acid] |  |  |  |  |  |  |  | 0.125 µg/mL (≈ 0.234 µM) | 0.125 µg/mL (≈ 0.234 µM) | 2 µg/mL (≈ 3.75 µM) | 2 µg/mL (≈ 3.75 µM) | 0.25 µg/mL (≈ 0.468 µM) | 2 µg/mL (≈ 3.75 µM) | — (98%) |  |
| Nc1nc(/C(=N/O)C(=O)N[C@@H]2C(=O)N3C(C(=O)O)=C(Sc4ccncc4CSc4cccnc4N)CS[C@H]23)c(Cl)s1 [Compound 29] | 0.25 µg/mL (≈ 0.384 µM) | 0.125 µg/mL (≈ 0.192 µM) | 1 µg/mL (≈ 1.54 µM) | 2 µg/mL (≈ 3.07 µM) | 0.125 µg/mL (≈ 0.192 µM) | 0.5 µg/mL (≈ 0.768 µM) | >5 mg/kg |  |  |  |  |  |  |  |  |
| Nc1nc(C(=NO)C(=O)N[C@@H]2C(=O)N3C(C(=O)O)=C(Sc4cnns4)CSC23)ns1 (stereo partly drawn) [Compound 39, (7R)-7-[2-(5-Amino-[1,2,4]thiadiazol-3-yl)-2-hydroxyimino-acetylamino]-8-oxo-3-([1,2,3]thiadiazol-5-ylsulfanyl)-5-thia-1-aza-bicyclo[4.2.0]oct-2-ene-2-carboxylic acid] |  |  |  |  |  |  |  | 0.125 µg/mL (≈ 0.257 µM) | 0.125 µg/mL (≈ 0.257 µM) | 8 µg/mL (≈ 16.4 µM) | 8 µg/mL (≈ 16.4 µM) | 1 µg/mL (≈ 2.06 µM) | 2 µg/mL (≈ 4.11 µM) | — (94%) |  |
| C[C@@H](O)[C@H]1C(=O)N2C(C(=O)O)=C(SCCN=CN)C[C@H]12 [Imipenem, reference compound] |  |  |  |  |  |  |  | 0.25 µg/mL (≈ 0.835 µM) | < 0.02 µg/mL | 16 µg/mL (≈ 53.4 µM) | 32 µg/mL (≈ 107 µM) | 1 µg/mL (≈ 3.34 µM) | 4 µg/mL (≈ 13.4 µM) |  | ED50 [7, 16]: 0.15 mg/kg |
| Nc1nc(/C(=N/O)C(=O)N[C@@H]2C(=O)N3C(C(=O)O)=C(Sc4ccncc4)CS[C@H]23)c(Cl)s1 [Compound 21] |  |  |  |  |  |  |  | 0.25 µg/mL (≈ 0.487 µM) | 0.25 µg/mL (≈ 0.487 µM) | 2 µg/mL (≈ 3.9 µM) | 2 µg/mL (≈ 3.9 µM) | 0.5 µg/mL (≈ 0.975 µM) | 2 µg/mL (≈ 3.9 µM) |  | ED50 [7, 16]: 3.6 mg/kg; HSB, human serum binding [8, 19]: 98% |
